The numbers were not newly measured in patent publication US10709668B2, “Sprinkle formulations of acamprosate” (priority 2015, dated 2020), which cites them from elsewhere.

The conditions of data set [1]: humans.
For data set [2] the following is noted: subjects with autism and fragile x syndrome (WO 2010093859).

As to `CC(=O)NCCCS(=O)(=O)O` [acamprosate, 3-(Acetylamino)propylsulfonic acid], the Oral bioavailability result in data set [1] is “about 11%”. Also, the “Improvement in primary outcomes (CGI-I, CGI-S)” value in data set [2] is recorded as “marked improvements”.
